Converted amounts (≈) assume the structure as drawn.
Legend:
Sarcoma 180 tumor = assay: Therapeutic effect against Sarcoma 180 tumor implanted subcutaneously in mice; format: in vivo, ddY-strain mice; conditions: Dose 0.70 mg/kg, intravenously, one day after implantation; tumor volume seven days after implantation
Experimental: Five male ddY-strain mice each weighing 18 to 20 g were used for each group as test animals, and 5 × 10⁵ Sarcoma 180 tumor cells were implanted subcutaneously into the animals at the axilla. One day after the implantation, 0.2 ml of physiological saline containing a test compound at the concentration indicated in Table 1 was intravenously administered to each mouse. T/C [T: average tumor volume (mm³) of the group treated with the test compound, C: that of the control group which received an intravenous administration of 0.2 ml of physiological saline] was determined seven days after the implantation.

[1] = test system: Micrococcus luteus ATCC9341; assay: Antibacterial activity, agar dilution method; format: cell-based; conditions: pH 7.0
Experimental: (§1) Minimum inhibitory concentrations (MIC) of Compound (I) against various bacteria were determined by the agar dilution method (pH 7.0).

[2] = test system: Staphylococcus aureus 6538-P; assay: Antibacterial activity, agar dilution method; format: cell-based; conditions: pH 7.0
Experimental: as §1

[3] = test system: Staphylococcus aureus 209-P; assay: Antibacterial activity, agar dilution method; format: cell-based; conditions: pH 7.0
Experimental: as §1

[4] = test system: Staphylococcus epidermidis S1318; assay: Antibacterial activity, agar dilution method; format: cell-based; conditions: pH 7.0
Experimental: as §1

[5] = test system: Bacillus subtilis ATCC6633; assay: Antibacterial activity, agar dilution method; format: cell-based; conditions: pH 7.0
Experimental: as §1

HeLaS₃ cells = assay: Growth inhibition test on HeLaS₃ cells (Neutral Red staining); format: cell-based; conditions: Homo sapiens, HeLa, 72 hours culture, absorbance 550 nm, read-out: HeLaS₃ IC₅₀
Experimental: HeLaS₃ cells suspended in MEM medium containing 10% fetal calf serum and 2 mM glutamine (hereinafter referred to as medium A) to a concentration of 3 × 10⁴ cells/ml were put into wells of a 96-well microtiter plate in an amount of 0.1 ml per well.
After culturing at 37°C overnight in a CO₂-incubator, 0.05 ml of a test sample appropriately diluted with medium A was added to each well.
The cells were further cultured at 37°C for 72 hours in the CO₂-incubator and the culture supernatant was removed. The residue was washed once with phosphate buffered physiological saline (PBS), and 0.1 ml of a medium containing medium A and 0.02% Neutral Red was added to each well, followed by culturing at 37°C for one hour in the CO₂-incubator to stain the cells. After removal of the culture supernatant, the cells were washed once with physiological saline, and the dye was extracted with 0.001N HCl/30% ethanol. Absorbance of the extract at 550 nm was measured with a microplate reader. By comparing the absorbance of the extract of intact cells with those of the cells treated with the test compound at known concentrations, the concentration of the test compound which inhibited growth of the cells by 50% (IC₅₀) was determined.

[6] = Stability in solution for preparing a freeze-dried preparation (HPLC); format: physicochemical; conditions: for Residual Rate: 1 mg/ml in water with 50 mg lactose and 0.5 mg citric acid per ml, 25°C
Experimental: In 1 ml of distilled water was dissolved 50 mg of lactose and 0.5 mg of citric acid. Compound (I) or Compound (III) was dissolved in the solution to a concentration of 1 mg/ml. The test solution was poured in a vial, and kept in a thermostat at 25°C. The concentration of Compound (I) or Compound (III) in the solution was determined by High Performance Liquid Chromatography (HPLC) with the elapse of time. The concentration of each test compound in the test solution just after the dissolution was defined as 100 %. The residual rate (%) was calculated according to the following equation. [formula]

Question: Which “Sarcoma 180 T/C” value (Sarcoma 180 tumor) does the source give for COC(=O)c1c(C)[nH]c2c(OC(=O)N3CCN(C)CC3)cc3c(c12)C(CBr)CN3C(=O)c1cc2cc(OC)c(OC)c(OC)c2[nH]1 (centres unmarked) [Compound (I)] here?
Answer: 0.095

Question: And the MIC [1]?
Answer: 25 µg/mL (≈ 35.8 µM)

Question: What about the MIC [2] of the same compound?
Answer: 6.25 µg/mL (≈ 8.95 µM)

Question: And the MIC [3]?
Answer: 6.25 µg/mL (≈ 8.95 µM)

Question: And the MIC [4]?
Answer: 6.25 µg/mL (≈ 8.95 µM)

Question: And the MIC [5]?
Answer: 6.25 µg/mL (≈ 8.95 µM)

Question: And the IC50 (HeLaS₃ cells)?
Answer: 31 nM

Question: What about the “Residual Rate” value ([6]; Time 0 hr (defined as 100 %)) of the same compound?
Answer: 100%

Question: And the “Residual Rate” value ([6]; Time 3 hr)?
Answer: 99%

Question: And the “Residual Rate” value ([6]; Time 6 hr)?
Answer: 98%

Question: And the “stability in solution (in words)” value ([6]; compared with Compound (III), results of Table 3)?
Answer: improved stability in solution
